In the NIST ThermoML archive (doi:10.1021/je200030k):

Tests used:
[1] = xn = mol fraction of the nth substance listed; conditions: 101 kPa, Liquid, Vibrating tube method
[2] = refractive index (Na D-line) (dimensionless); xn = mol fraction of the nth substance listed; conditions: 101 kPa, Liquid, Standard Abbe refractometry

CCCCn1cc[n+](C)c1.NCC(=O)[O-] [1-butyl-3-methylimidazolium glycinate] + CC(C)O
Conditions	mass density, [1] [kg/m3]	refractive index, [2]
298.15 K, x1 = 0.0965	877.6	1.405
298.15 K, x1 = 0.1992	957.8	1.43
298.15 K, x1 = 0.3059	1024.4	1.451
298.15 K, x1 = 0.3977	1071.9	1.466
298.15 K, x1 = 0.5115	1121.6	1.48
298.15 K, x1 = 0.5868	1149.9	1.488
298.15 K, x1 = 0.7052	1188.4	1.499
298.15 K, x1 = 0.8117	1217.5	1.509
298.15 K, x1 = 0.8775	–	1.514
303.15 K, x1 = 0.0965	870.7	1.404
303.15 K, x1 = 0.1992	951.4	1.429
303.15 K, x1 = 0.3059	1018.6	1.45
303.15 K, x1 = 0.3977	1066.5	1.464
303.15 K, x1 = 0.5115	1116.8	1.478
303.15 K, x1 = 0.5868	1145.4	1.487
303.15 K, x1 = 0.7052	1184.3	1.499
303.15 K, x1 = 0.8117	1213.9	1.508
303.15 K, x1 = 0.8775	–	1.513
308.15 K, x1 = 0.0965	863	1.403
308.15 K, x1 = 0.1992	944.2	1.429
308.15 K, x1 = 0.3059	1012	1.449
308.15 K, x1 = 0.3977	1060.6	1.463
308.15 K, x1 = 0.5115	1111.4	1.477
308.15 K, x1 = 0.5868	1140.5	1.486
308.15 K, x1 = 0.7052	1180	1.497
308.15 K, x1 = 0.8117	1210	1.505
308.15 K, x1 = 0.8775	1226.4	1.51
313.15 K, x1 = 0.0965	854.7	1.402
313.15 K, x1 = 0.1992	936.6	1.427
313.15 K, x1 = 0.3059	1005	1.449
313.15 K, x1 = 0.3977	1054.1	1.462
313.15 K, x1 = 0.5115	1105.8	1.477
313.15 K, x1 = 0.5868	1135.3	1.485
313.15 K, x1 = 0.7052	1175.4	1.497
313.15 K, x1 = 0.8117	1205.9	1.506
313.15 K, x1 = 0.8775	–	1.511

CCCCn1cc[n+](C)c1.NCC(=O)[O-] [1-butyl-3-methylimidazolium glycinate] + CCCCO
Conditions	mass density, [1] [kg/m3]	refractive index, [2]
298.15 K, x1 = 0.0972	885.2	1.418
298.15 K, x1 = 0.2125	962.5	1.438
298.15 K, x1 = 0.3041	1014.1	1.454
298.15 K, x1 = 0.3849	1054.3	1.465
298.15 K, x1 = 0.4929	1101.4	1.478
298.15 K, x1 = 0.6103	1146.3	1.49
298.15 K, x1 = 0.6923	1174.2	1.497
298.15 K, x1 = 0.8037	1208.4	1.506
298.15 K, x1 = 0.9129	–	1.514
303.15 K, x1 = 0.0972	881.7	1.417
303.15 K, x1 = 0.2125	959.1	1.438
303.15 K, x1 = 0.3041	1010.9	1.452
303.15 K, x1 = 0.3849	1051.2	1.463
303.15 K, x1 = 0.4929	1098.4	1.476
303.15 K, x1 = 0.6103	1143.3	1.488
303.15 K, x1 = 0.6923	1171.2	1.496
303.15 K, x1 = 0.8037	1205.4	1.505
303.15 K, x1 = 0.9129	–	1.513
308.15 K, x1 = 0.0972	878	1.415
308.15 K, x1 = 0.2125	955	1.437
308.15 K, x1 = 0.3041	1007	1.45
308.15 K, x1 = 0.3849	1048	1.461
308.15 K, x1 = 0.4929	1095	1.474
308.15 K, x1 = 0.6103	1140	1.487
308.15 K, x1 = 0.6923	1168	1.495
308.15 K, x1 = 0.8037	1202	1.504
308.15 K, x1 = 0.9129	1232	1.512
313.15 K, x1 = 0.0972	874	1.413
313.15 K, x1 = 0.2125	952	1.435
313.15 K, x1 = 0.3041	1004	1.45
313.15 K, x1 = 0.3849	1044	1.461
313.15 K, x1 = 0.4929	1092	1.474
313.15 K, x1 = 0.6103	1137	1.486
313.15 K, x1 = 0.6923	1165	1.495
313.15 K, x1 = 0.8037	1199	1.503
313.15 K, x1 = 0.9129	–	1.51
